Results: patent publication US20100069345A1, “Lanthanide-porphyrin complexes as anti-tumor agents” (priority 2005, published 2010)

How the values were obtained:
HeLa cells [1] = assay: Effect of 3-MA on 1-induced cytotoxicity (MTT); type: cell-based, human; conditions: 3-MA 10 mM
Experimental: HeLa cells were pre-treated with 3-MA (10 mM) for 1 h, and then with 1 for 24 h as indicated. Cell viability was measured using MTT assay *, P<0.001. Effect of 3-MA on 1-induced cytotoxicity. Cells were seeded on 96-well microtitre plates (8×10^3 cells per well). After overnight incubation, the cells were pre-incubated with 3-methyladenine (3-MA, 10 mM) for 1 hour and then in the presence of 1 (DMSO<1%) for 24 h. Cell viability was measured by MTT assay as described before.

[2] = test system: human cervical epitheloid carcinoma cells (HeLa); assay: MTT cell viability assay, HeLa; type: cell-based; conditions: for IC50: MTT, 37° C., 48 h, mean ± SD of three experiments; for IC50 ratio cisplatin/complex, HeLa: IC50 of cisplatin divided by IC50 of complex
Text: (§1) Human cervical epitheloid carcinoma cells (HeLa), human hepatocellular carcinoma cells (HepG2 and Hep3B), human breast cancer cells (MCF-7), human coloadenocarcinoma cells (HCT-8), and normal human lung fibroblast cells (CCD-19Lu) were purchased from American Type Culture Collection (ATCC) Rockville, Md., USA. The human hepatocellular cancinoma cells QGY-7703, and the multi-drug resistant cell line QGY-TR50 derived from QGY-7703, were generously provided by Prof. Yong Xie (The Hong Kong University of Science and Technology, Hong Kong PRC). QGY-TR50 cells were isolated and cultured as described (J. Zhou, S. C. Cheng, D. Luo, Y. Xie Biochem. Biophys. Res. Commun. 2001, 280, 1237-1242). Human nasopharyngeal carcinoma cells (SUNE1 and its cisplatin-resistant variant—CNE2) were derived from poorly differentiated NPC in Chinese patients and were generously provided by Dr. S. W. Tsao (The University of Hong Kong, Hong Kong PRC). Cell culture flasks and 96-well microtitre plates were from Nalge Nunc Int. Culture medium, other medium constituents and phosphate buffer saline (PBS) were obtained by Gibco BRL Rockville, Md., USA. Cell Proliferation kit I (MTT) was purchased from Roche. Mannheim, Germany.

[3] = test system: human coloadenocarcinoma cells (HCT-8); assay: MTT cell viability assay, HCT-8; type: cell-based; conditions: for IC50: MTT, 37° C., 48 h, mean ± SD; for IC50 ratio cisplatin/complex, HCT-8: IC50 of cisplatin divided by IC50 of complex
Text: as §1

[4] = test system: human nasopharyngeal carcinoma cells (SUNE1); assay: MTT cell viability assay, SUNE1; type: cell-based; conditions: for IC50: MTT, 37° C., 48 h, mean ± SD; for IC50 ratio cisplatin/complex, SUNE1: IC50 of cisplatin divided by IC50 of complex
Text: as §1

[5] = test system: cisplatin-resistant variant (CNE2) of human nasopharyngeal carcinoma cells; assay: MTT cell viability assay, CNE2; type: cell-based; conditions: for IC50: MTT, 37° C., 48 h, mean ± SD
Text: as §1

[6] = test system: human breast cancer cells (MCF-7); assay: MTT cell viability assay, MCF-7; type: cell-based; conditions: MTT, 37° C., 48 h; mean ± SD
Text: as §1

[7] = test system: normal human lung fibroblast cells (CCD-19Lu); assay: MTT cell viability assay, CCD-19Lu; type: cell-based; conditions: for IC50: MTT, 37° C., 48 h, mean ± SD; for IC50 ratio cisplatin/complex, CCD-19Lu: IC50 of cisplatin divided by IC50 of complex
Text: as §1

[8] = test system: human hepatocellular carcinoma cells (HepG2); assay: MTT cell viability assay, HepG2; type: cell-based; conditions: for IC50: MTT, 37° C., 48 h, mean ± SD
Text: as §1

[9] = test system: multi-drug resistant cell line QGY-TR50; assay: MTT cell viability assay, QGY-TR50; type: cell-based, human; conditions: MTT, 37° C., 48 h; mean ± SD
Text: as §1

[10] = test system: human hepatocellular cancinoma cells QGY-7703; assay: MTT cell viability assay, QGY-7703; type: cell-based; conditions: MTT, 37° C., 48 h; mean ± SD
Text: as §1

[11] = test system: human hepatocellular carcinoma cells (Hep3B); assay: MTT cell viability assay, Hep3B; type: cell-based; conditions: 37° C., 48 h, mean ± SD
Text: as §1

[12] = Stability by UV-visible in DMSO/Tris buffer; type: physicochemical; conditions: DMSO/Tris buffer solution (1:9), 24 h, room temperature; complex 1 3 μM, complex 2b 7 μM
Experimental: UV-visible experiments. The absorption spectra of 3 μM of complex 1 in DMSO/Tris buffer solution (1:9) were monitored for 24 h. […] The complex was monitored over 24 h at room temperature and about 23% decrease in the Soret band intensity was recorded without any significant spectral shift in both Soret and Q-bands (FIG. 5). The absorption spectra of 7 μM of complex 2b in DMSO/Tris buffer solution (1:9) were also monitored for 24 h.

[13] = Stability by UV-visible in presence of reduced glutathione; type: physicochemical; conditions: 6 mM GSH in DMSO/Tris buffer solution (1:9)
Experimental: Moreover, concomitant band broadening in spectrum of complex 1 was observed after 24 h. No significant spectral shift and formation of new absorption band were observed. […] Comparing with the spectra of complex 1, the decrease in Soret band intensity of complex 2b is less significant. The intensities are only found to decrease in 2% and 19% after 2 h and 24 h, respectively. Also, there is no significant spectral shift and formation of new absorption band were observed (FIG. 8).

calf thymus DNA = assay: Absorption titration with calf thymus DNA; type: binding; conditions: Tris buffer
Experimental: The calf thymus DNA was purchased from Sigma-Aldrich Chemical Co. and was purified by phenol-chloroform extraction. The DNA was dissolved in buffer (5 mM Tris, 5 mM NaCl, pH 7.2). The concentration (per base pair) or calf thymus DNA was determined spectophotometrically on the basic of ε260, 13200 M^−1cm^−1bp.
Absorption Titration. Studying the interaction between drugs and DNA is imperative to pharmaceutical chemistry. Since complexation between a ligand molecule and a nucleic acid leads to optical changes, its binding can be studied using spectroscopic methods like fluorescence and electronic absorption spectroscopy (C. V. Kumar, E. H. Asuncion, J. Am. Chem. Soc. 1993, 115, 8547-8553). The binding interactions of lanthanide (III) porphyrin complexes with calf thymus DNA were investigated using UV-vis spectroscopy and depicted in FIGS. 9 and 10 (selected absorption curves were shown for clear plot). By monitoring wavelengths at 410 nm (complex 1) and 430 nm (complex 2b), successive additions of calf thymus DNA to the respective complexes in Tris buffer solution containing <5% DMSO were done until saturation. Moderate hyprochromicities of 27% and 23% in complexes 1 and 2b were found without significant bathochromic spectral shift. […] The values of binding constant K were calculated from a plot of D/Δεap versus D based on the following equation:
Where D is the concentration of DNA, Δεap=|ΔεA−ΔεB| wherein εA=Aobs/[complex], and Δε=|ΔεB−ΔεF|; εB and εF correspond to the extinction coefficients of DNA-bound lanthanide(III) porphyrin complex adduct and its free complex, respectively. By monitoring absorbance at 410 nm (complex 1) and 430 nm (complex 2b), plots of D/Δεap against D are inserted in FIGS. 9 and 10. Linear curves in two graphs were plotted with slopes of 4.63×10^−5 (complex 1) and 3.60×10^−5 (complex 2b) (both R=0.99).

HeLa cells [14] = assay: Confocal microscopy with AO/EB staining; type: cell-based, human; conditions: complex 1 0.2 μM 20 h, complex 2b 10 μM 16 h
Text: Confocal Microscopic Experiment. By examining cell morphology under scanning confocal microscopy, the type of cell death can be distinguished. Early phase of apoptosis is characterized by the formation of apoptotic bodies when the integrity of the cell membrane is maintained without cell lysis. On the other hand, necrosis is characterized by cell lyses with the leaking out of internal cellular components such as DNA. With ethidium bromide (DNA stain) and acridine orange (cell membrane stain) as staining agents, normal, apoptotic and necrotic cells can be distinguished under laser confocal microscopy (Chan et. al., Inorg. Chem. 2002, 41, 3161-3171).

[15] = IC50 of cisplatin divided by IC50 of complex

IC50 [2] | IC50 [3] | IC50 [4] | IC50 [6] | IC50 ratio cisplatin/complex, HeLa [2] | IC50 ratio cisplatin/complex, HCT-8 [3] | IC50 ratio cisplatin/complex, SUNE1 [4] | Compound | IC50 [5] | IC50 [7] | IC50 [8] | IC50 ratio cisplatin/complex, CCD-19Lu [7] | also measured
 |  |  |  |  |  |  | Cn1cnc(N)c2ncnc1-2 [Complex 3-MA, 3-methyladenine, reference compound] |  |  |  |  | cell viability after pre-treatment with 3-MA alone (HeLa cells [1]): did not affect cell viability
6.9 ± 0.1 µM | 15.2 ± 6.1 µM | 16.2 ± 1.6 µM | > 100 µM | 2.1 | 1.7 | 0.7 | C1=Cc2nc1c(-c1ccccc1)c1ccc([n-]1)c(-c1ccccc1)c1nc(c(-c3ccccc3)c3ccc([n-]3)c2-c2ccccc2)C=C1.CC(=O)C=C(C)[O-].[Yb+3] [Complex 2a] |  | 25.1 ± 2.6 µM | 17.1 ± 1.3 µM | 3.6 | IC50 ratio cisplatin/complex, HepG2 [8, 15]: 0.3
2.1 ± 0.3 µM | 5.6 ± 1.5 µM | 9.4 ± 0.3 µM | > 100 µM | 7.0 | 4.6 | 1.2 | [Yb2(TPP)2]μ-C2O4 [Complex 2b] | 16.8 ± 0.01 µM | 16 ± 2.9 µM |  | 5.6 | IC50 ratio cisplatin/complex, CNE2 [5, 15]: 3.4; decrease in Soret band intensity [12]: 5%; decrease in Soret band intensity, reduced glutathione, 2 h ([13]; 2 h): 2%; decrease in Soret band intensity, reduced glutathione, 24 h ([13]; 24 h): 19%; hyprochromicity on addition of calf thymus DNA (calf thymus DNA; <5% DMSO, until saturation, 410 nm (1), 430 nm (2b)): 23%; binding constant K with calf thymus DNA (calf thymus DNA; UV-vis absorption titration, 20° C.): (5.49±0.8)×10^5 mol^−1dm^3; cell morphology (type of cell death) under confocal microscopy (HeLa cells [14]): both living and apoptotic cells were observed

Compound | IC50 [2] | IC50 [3] | IC50 [4] | IC50 [6] | IC50 ratio cisplatin/complex, HeLa [2] | IC50 ratio cisplatin/complex, HCT-8 [3] | IC50 ratio cisplatin/complex, SUNE1 [4] | IC50 [5] | IC50 [7] | IC50 [8] | IC50 ratio cisplatin/complex, CCD-19Lu [7] | also measured
N.N.[Cl][Pt][Cl] [Cisplatin, cis-diamminedichloroplatinum[II], reference compound] | 14.2 ± 8.2 µM | 26.1 ± 2.1 µM | 11.8 ± 1.2 µM | 35.4 ± 5 µM |  |  |  | 57.6 ± 4.6 µM | 90.6 ± 42.3 µM | 4.76 ± 0.7 µM |  | IC50 [9]: 32.6 ± 1.94 µM; IC50 [10]: 45.8 ± 4.13 µM; IC50 [11]: 39.8 ± 2.38 µM
